Reference: paper PMC9977294, “A parasitic fungus employs mutated eIF4A to survive on rocaglate-synthesizing Aglaia plants” (eLife, 2023)
Where “and” joins values, the source holds several entries; their conditions need not be identical. Equal values may be shown once. Read-outs that look alike come from different tables or passages of the source.

Key:
[1] = biological target: T1, O. sinensis eIF4A His154Gly (Ophiocordyceps sinensis, UniProt A0A8H4LTQ8, H154G); experiment: Fluorescence polarization assay, FAM-labeled [AG]10 RNA and recombinant eIF4A; format: binding; conditions: for Kd: [AG]10 10 nM, compound 50 µM, read-out: Kd between eIF4A protein and RNA
T1 sequence (A0A8H4LTQ8 1-397 H154G): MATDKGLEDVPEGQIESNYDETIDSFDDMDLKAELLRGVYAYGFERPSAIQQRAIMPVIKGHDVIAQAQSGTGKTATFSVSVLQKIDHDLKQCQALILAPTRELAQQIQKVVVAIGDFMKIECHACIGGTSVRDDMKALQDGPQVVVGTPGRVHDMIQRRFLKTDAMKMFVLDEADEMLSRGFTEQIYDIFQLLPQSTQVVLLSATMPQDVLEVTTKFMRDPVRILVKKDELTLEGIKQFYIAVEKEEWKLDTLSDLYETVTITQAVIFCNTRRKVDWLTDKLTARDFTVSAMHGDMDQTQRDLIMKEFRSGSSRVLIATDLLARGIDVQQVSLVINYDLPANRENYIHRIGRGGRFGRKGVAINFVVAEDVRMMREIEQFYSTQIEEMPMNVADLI

[2] = biological target: T2, O. sinensis eIF4A WT His154 (Ophiocordyceps sinensis, UniProt A0A8H4LTQ8); experiment: as above; format: binding; conditions: for Kd: [AG]10 10 nM, compound 50 µM, read-out: Kd between eIF4A protein and RNA
T2 sequence (A0A8H4LTQ8 1-397): T1 sequence (A0A8H4LTQ8 1-397 H154G)

[3] = [AG]10, ADP + Pi, RocA 50 µM, protein 0.01 μM
[4] = [AG]10, ADP + Pi, RocA 50 µM, protein 0.05 μM
[5] = [AG]10, ADP + Pi, RocA 50 µM, protein 0.075 μM
[6] = [AG]10, ADP + Pi, RocA 50 µM, protein 0.1 μM
[7] = [AG]10, ADP + Pi, RocA 50 µM, protein 0.5 μM
[8] = [AG]10, ADP + Pi, RocA 50 µM, protein 0.75 μM
[9] = [AG]10, ADP + Pi, RocA 50 µM, protein 1 μM
[10] = [AG]10, ADP + Pi, RocA 50 µM, protein 5 μM
[11] = [AG]10, ADP + Pi, RocA 50 µM, protein 7.5 μM
[12] = [AG]10, ADP + Pi, RocA 50 µM, protein 10 μM
[13] = [AG]10, ADP + Pi, RocA 50 µM, protein 25 μM
[14] = [AG]10, ADP + Pi, RocA 50 µM, protein 50 μM
[15] = [AG]10 RNA, AMP-PNP, RocA, protein concentration 0.01 μM
[16] = [AG]10 RNA, AMP-PNP, RocA, protein concentration 0.05 μM
[17] = [AG]10 RNA, AMP-PNP, RocA, protein concentration 0.075 μM
[18] = [AG]10 RNA, AMP-PNP, RocA, protein concentration 0.1 μM
[19] = [AG]10 RNA, AMP-PNP, RocA, protein concentration 0.5 μM
[20] = [AG]10 RNA, AMP-PNP, RocA, protein concentration 0.75 μM
[21] = [AG]10 RNA, AMP-PNP, RocA, protein concentration 1 μM
[22] = [AG]10 RNA, AMP-PNP, RocA, protein concentration 5 μM
[23] = [AG]10 RNA, AMP-PNP, RocA, protein concentration 7.5 μM
[24] = [AG]10 RNA, AMP-PNP, RocA, protein concentration 10 μM
[25] = [AG]10 RNA, AMP-PNP, RocA, protein concentration 25 μM
[26] = [AG]10 RNA, AMP-PNP, RocA, protein concentration 50 μM

## COc1ccc([C@@]23Oc4cc(OC)cc(OC)c4[C@]2(O)[C@H](O)[C@H](C(=O)N(C)C)[C@H]3c2ccccc2)cc1 [RocA, rocaglamide A]
[1]; ADP + Pi (1 mM each)
  Kd: 850 ± 120 nM
[1]; AMP-PNP 1 mM
  Kd: 370 ± 46 nM
[1]; [3]
  fluorescence polarization, Mean: 0.06011
  fluorescence polarization, replicates: -0.02732
[1]; [4]
  fluorescence polarization, Mean: 0.1202
  fluorescence polarization, replicates: 0.1284
[1]; [5]
  fluorescence polarization, Mean: 0.1339
  fluorescence polarization, replicates: 0.1284 and 0.1612 and 0.112
[1]; [6]
  fluorescence polarization, Mean: 0.1639
  fluorescence polarization, replicates: 0.2104 and 0.1284 and 0.153
[1]; [7]
  fluorescence polarization, Mean: 0.6885
  fluorescence polarization, replicates: 0.6858 and 0.5956
[1]; [8]
  fluorescence polarization, Mean: 0.6093
  fluorescence polarization, replicates: 0.5874 and 0.6038
[1]; [9]
  fluorescence polarization, Mean: 0.8743
  fluorescence polarization, replicates: 0.9071 and 0.9481
[1]; [10]
  fluorescence polarization, Mean: 1.648
  fluorescence polarization, replicates: 1.628 and 1.6612 and 1.653
[1]; [11]
  fluorescence polarization, Mean: 1.617
  fluorescence polarization, replicates: 1.6776 and 1.53 and 1.645
[1]; [12]
  fluorescence polarization, Mean: 1.686
  fluorescence polarization, replicates: 1.612 and 1.735 and 1.71
[1]; [13]
  fluorescence polarization, Mean: 1.735
  fluorescence polarization, replicates: 1.76 and 1.751 and 1.694
[1]; [14]
  fluorescence polarization, Mean: 1.7459
  fluorescence polarization, replicates: 1.735 and 1.76 and 1.743
[1]; [15]
  Fluorescence polarization, Replicate 1-3: 0.04372 and 0.1339 and -0.005464
  fluorescence polarization, Mean: 0.05738
[1]; [16]
  Fluorescence polarization, Replicate 1-3: 0.06831 and 0.1421 and -0.03005
  fluorescence polarization, Mean: 0.06011
[1]; [17]
  Fluorescence polarization, Replicate 1-3: 0.06831 and 0.1339 and 0.1503
  fluorescence polarization, Mean: 0.1175
[1]; [18]
  Fluorescence polarization, Replicate 1-3: 0.1667 and 0.0847 and 0.1995
  fluorescence polarization, Mean: 0.1503
[1]; [19]
  Fluorescence polarization, Replicate 1-3: 1.142 and 1.044 and 0.9536
[1]; [20]
  Fluorescence polarization, Replicate 1-3: 0.9454 and 1.044 and 0.9126
  fluorescence polarization, Mean: 0.9672
[1]; [21]
  Fluorescence polarization, Replicate 1-3: 1.175 and 1.167 and 1.109
[1]; [22]
  Fluorescence polarization, Replicate 1-3: 1.5847 and 1.5765 and 1.601
  fluorescence polarization, Mean: 1.587
[1]; [23]
  Fluorescence polarization, Replicate 1-3: 1.511 and 1.56 and 1.601
  fluorescence polarization, Mean: 1.557
[1]; [24]
  Fluorescence polarization, Replicate 1-3: 1.675 and 1.56 and 1.667
  fluorescence polarization, Mean: 1.634
[1]; [25]
  Fluorescence polarization, Replicate 1-3: 1.5847 and 1.699 and 1.626
  fluorescence polarization, Mean: 1.637
[1]; [26]
  Fluorescence polarization, Replicate 1-3: 1.65 and 1.626 and 1.691
  fluorescence polarization, Mean: 1.656
[2]; ADP + Pi (1 mM each)
  Kd: ~110 nM and 110 nM
[2]; AMP-PNP 1 mM
  Kd: 90 ± 14 nM
[2]; [3]
  fluorescence polarization, replicates: 0.1995
[2]; [4]
  fluorescence polarization, Mean: 0.4699
  fluorescence polarization, replicates: 0.5109 and 0.4536
[2]; [5]
  fluorescence polarization, Mean: 0.6066
  fluorescence polarization, replicates: 0.6585
[2]; [6]
  fluorescence polarization, Mean: 0.7049
  fluorescence polarization, replicates: 0.7732 and 0.6667
[2]; [7]
  fluorescence polarization, Mean: 1.713
  fluorescence polarization, replicates: 1.781 and 1.675 and 1.683
[2]; [8]
  fluorescence polarization, Mean: 1.757
  fluorescence polarization, replicates: 1.724 (2×) and 1.8224
[2]; [9]
  fluorescence polarization, Mean: 1.82
  fluorescence polarization, replicates: 1.8224 (2×) and 1.814
[2]; [10]
  fluorescence polarization, Mean: 1.888
  fluorescence polarization, replicates: 1.913 and 1.872 and 1.88
[2]; [11]
  fluorescence polarization, Mean: 1.883
  fluorescence polarization, replicates: 1.855 and 1.904 and 1.888
[2]; [12]
  fluorescence polarization, Mean: 1.893
  fluorescence polarization, replicates: 1.921 and 1.896 and 1.863
[2]; [13]
  fluorescence polarization, Mean: 1.861
  fluorescence polarization, replicates: 1.863 and 1.913 and 1.806
[2]; [14]
  fluorescence polarization, Mean: 1.801
  fluorescence polarization, replicates: 1.814 and 1.798 and 1.79
[2]; [15]
  Fluorescence polarization, Replicate 1-3: 0.1557 and 0
  fluorescence polarization, Mean: 0.09016
[2]; [16]
  Fluorescence polarization, Replicate 1-3: 0.5246 (2×) and 0.418
  fluorescence polarization, Mean: 0.4891
[2]; [17]
  Fluorescence polarization, Replicate 1-3: 0.5328 and 0.6803
  fluorescence polarization, Mean: 0.6175
[2]; [18]
  Fluorescence polarization, Replicate 1-3: 0.8689 and 0.8033 and 0.7049
  fluorescence polarization, Mean: 0.7923
[2]; [19]
  Fluorescence polarization, Replicate 1-3: 1.713 (2×) and 1.631
  fluorescence polarization, Mean: 1.686
[2]; [20]
  Fluorescence polarization, Replicate 1-3: 1.795 and 1.7459 and 1.77
  fluorescence polarization, Mean: 1.77
[2]; [21]
  Fluorescence polarization, Replicate 1-3: 1.861 and 1.836 and 1.779
  fluorescence polarization, Mean: 1.825
[2]; [22]
  Fluorescence polarization, Replicate 1-3: 1.787 and 1.828 and 1.811
  fluorescence polarization, Mean: 1.809
[2]; [23]
  Fluorescence polarization, Replicate 1-3: 1.869 and 1.877 and 1.844
  fluorescence polarization, Mean: 1.863
[2]; [24]
  Fluorescence polarization, Replicate 1-3: 1.836 and 1.7459 and 1.795
  fluorescence polarization, Mean: 1.792
[2]; [25]
  Fluorescence polarization, Replicate 1-3: 1.902 and 1.77 and 1.779
  fluorescence polarization, Mean: 1.817
[2]; [26]
  Fluorescence polarization, Replicate 1-3: 1.852 and 1.787 and 1.77
  fluorescence polarization, Mean: 1.803
